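These data come from cells grown in 96-well plates and exposed to compound for 48 hours at five concentrations. GI50 marks 50% less growth. TGI: total growth inhibition.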
Legend:
Assay in all cases: inhibition of tumour cell growth, NCI panel, 48 h
[1] = tested on: HT29 colon
[2] = tested on: NCI-H522 lung
[3] = tested on: A498 renal
[4] = tested on: SNB-75 CNS
[5] = tested on: HCC-2998 colon
[6] = tested on: 786-0 renal
[7] = tested on: SK-OV-3 ovarian
[8] = tested on: HOP-92 NSCLC
[9] = tested on: SW-620 colon
[10] = tested on: NCI-H226 lung

## C[Si](C)(C)/C=C\CCCN1C(=O)CCC1=O
[1]
  TGI: > 100 µM
[2]
  TGI: > 100 µM
[3]
  TGI: > 100 µM
[4]
  TGI: > 100 µM
[5]
  TGI: > 100 µM
[6]
  TGI: > 100 µM
[7]
  TGI: > 100 µM
[8]
  TGI: > 100 µM
[9]
  TGI: > 100 µM

## CC(C)Cc1ccc(C(C)/C=C2\CCC(CN3CCCC3)C2=O)cc1 (configuration not stated)
[1]
  TGI: 23.2 µM
[10]
  TGI: 33.1 µM
[2]
  TGI: 3.13 µM
[3]
  TGI: 36.5 µM
[4]
  TGI: 30 µM
[5]
  TGI: 19.3 µM
[6]
  TGI: 3.73 µM
[7]
  TGI: 33.9 µM
[8]
  TGI: 38 µM
[9]
  TGI: 29.7 µM

## N/C(=N\c1nc2ccccc2s1)NC(=O)Nc1ccccc1Cl
[1]
  GI50: 0.105 µM
  TGI: 6.31 µM
[10]
  GI50: 0.429 µM
  TGI: 19.2 µM
[2]
  GI50: 0.0439 µM
  TGI: 11.9 µM
[3]
  GI50: 0.0818 µM
  TGI: 0.579 µM
[4]
  GI50: 0.0336 µM
  TGI: 0.214 µM
[5]
  GI50: 0.348 µM
  TGI: 10.9 µM
[6]
  GI50: 0.184 µM
  TGI: 10.4 µM
[7]
  GI50: 0.643 µM
  TGI: 25.3 µM
[8]
  GI50: 0.356 µM
  TGI: 56.4 µM
[9]
  GI50: 0.0883 µM
  TGI: > 52.3 µM

## CN(C)CCCN=c1cc2c(=O)n(CCCN(C)C)c(=O)c3c(NCCCN(C)C)cc4c(O)n(CCCN(C)C)c(=O)c1c4c3-2
[1]
  GI50: 0.573 µM
  TGI: 3.58 µM
[10]
  GI50: 0.258 µM
  TGI: 4.12 µM
[2]
  GI50: 0.781 µM
  TGI: 2.76 µM
[3]
  GI50: 1.15 µM
  TGI: 3.92 µM
[4]
  GI50: 1.25 µM
  TGI: 3.68 µM
[5]
  GI50: 5.68 µM
  TGI: 22.9 µM
[6]
  GI50: 6.36 µM
  TGI: 87.4 µM
[7]
  GI50: 1.88 µM
  TGI: 6.93 µM
[8]
  GI50: 1.81 µM
  TGI: 14.2 µM
[9]
  GI50: 0.79 µM
  TGI: 15.6 µM

## COC1OC(CBr)C(OC(c2ccccc2)(c2ccccc2)c2ccccc2)C(OC(c2ccccc2)(c2ccccc2)c2ccccc2)C1OC(c1ccccc1)(c1ccccc1)c1ccccc1 (configuration not stated)
[1]
  TGI: > 100 µM
[10]
  TGI: 96.3 µM
[2]
  TGI: 40.8 µM
[3]
  TGI: > 100 µM
[5]
  TGI: > 100 µM
[6]
  TGI: > 100 µM
[7]
  TGI: 60.7 µM
[8]
  TGI: 52.4 µM
[9]
  TGI: > 100 µM

## Cc1ccc(NC(=O)CC/C(CC(=O)c2ccc(Cl)cc2)=N\NC(=O)C(=O)NN)cc1C
[1]
  TGI: > 100 µM
[10]
  TGI: > 100 µM
[2]
  TGI: > 100 µM
[3]
  TGI: > 100 µM
[4]
  TGI: > 100 µM
[5]
  TGI: > 100 µM
[6]
  TGI: > 100 µM
[7]
  TGI: > 100 µM
[9]
  TGI: > 100 µM

## N#C/C(=C/C=C/c1ccccc1)S(=O)c1ccccc1 (configuration not stated)
[1]
  GI50: 0.366 µM
  TGI: 2.17 µM
[10]
  GI50: 1.92 µM
  TGI: 5.88 µM
[2]
  GI50: 0.306 µM
  TGI: 1.35 µM
[3]
  GI50: 1.61 µM
  TGI: 3.13 µM
[4]
  GI50: 0.904 µM
  TGI: 3.01 µM
[5]
  GI50: 0.342 µM
  TGI: 1.18 µM
[6]
  GI50: 0.322 µM
  TGI: 1.36 µM
[7]
  GI50: 2.5 µM
  TGI: 10.9 µM
[8]
  GI50: 0.319 µM
  TGI: 1.03 µM
[9]
  GI50: 0.337 µM
  TGI: 1.13 µM

## COc1cc([C@@H]2c3cc4c(cc3[C@@H](NCc3ccc(C#N)cc3)C3COC(=O)[C@@H]32)OCO4)cc(OC)c1O (some centres not stated)
[1]
  TGI: 3.15 µM
[10]
  TGI: 2.26 µM
[2]
  TGI: 2.83 µM
[3]
  TGI: 3.84 µM
[4]
  TGI: 3.25 µM
[5]
  TGI: 3.69 µM
[6]
  TGI: 2.32 µM
[7]
  TGI: 3.9 µM
[8]
  TGI: 49.4 µM
[9]
  TGI: 3.44 µM

## CN(C1=NS(=O)(=O)N=C(N(C)c2ccccc2)O1)c1ccccc1
[1]
  TGI: 54.3 µM
[10]
  TGI: 33.1 µM
[2]
  TGI: 46.2 µM
[3]
  TGI: 42.1 µM
[4]
  TGI: 34.5 µM
[5]
  TGI: 36.7 µM
[6]
  TGI: 72.7 µM
[7]
  TGI: 78.8 µM
[8]
  TGI: 54.6 µM
[9]
  TGI: 30.3 µM

## N=C1C(c2nc3ccccc3s2)=C(O)CN1c1ccc(Cl)cc1Cl
[1]
  GI50: 16.4 µM
  TGI: > 100 µM
[10]
  GI50: 16.9 µM
  TGI: 40.7 µM
[2]
  GI50: 11.2 µM
  TGI: 35.2 µM
[3]
  GI50: 12.5 µM
  TGI: 50.7 µM
[4]
  GI50: 13.1 µM
  TGI: > 100 µM
[5]
  GI50: 10.4 µM
  TGI: 31.1 µM
[6]
  GI50: 16.9 µM
  TGI: 48.2 µM
[7]
  GI50: 32.2 µM
  TGI: > 100 µM
[8]
  GI50: 15.8 µM
  TGI: 38.1 µM
[9]
  GI50: 36.7 µM
  TGI: > 100 µM

## NNC(=O)CCC(=O)Nc1ccc(Cl)cc1Cl
[1]
  TGI: > 100 µM
[10]
  TGI: > 100 µM
[2]
  TGI: > 100 µM
[3]
  TGI: > 100 µM
[4]
  TGI: > 100 µM
[5]
  TGI: > 100 µM
[6]
  TGI: > 100 µM
[7]
  TGI: > 100 µM
[8]
  TGI: > 100 µM
[9]
  TGI: > 100 µM

## O=C1/C(=C/c2ccccc2Br)COc2ccc(O)c(O)c21
[1]
  GI50: 3.37 µM
  TGI: 10.4 µM
[10]
  GI50: 2.75 µM
  TGI: 8.19 µM
[2]
  GI50: 0.196 µM
  TGI: 0.494 µM
[3]
  GI50: 1.97 µM
  TGI: 3.69 µM
[4]
  GI50: 1.47 µM
  TGI: 6.92 µM
[5]
  GI50: 1.83 µM
  TGI: 3.4 µM
[6]
  GI50: 1.55 µM
  TGI: 4.16 µM
[7]
  GI50: 3.95 µM
  TGI: 15 µM
[8]
  GI50: 2.71 µM
  TGI: 9 µM
[9]
  GI50: 1.34 µM
  TGI: 4.44 µM

## O=S1c2ccccc2N=C(c2ccc(Cl)cc2)CC1c1cccs1 (configuration not stated)
[1]
  TGI: 49.4 µM
[10]
  TGI: > 100 µM
[2]
  TGI: 83.5 µM
[3]
  TGI: > 100 µM
[4]
  TGI: > 100 µM
[5]
  TGI: 36.9 µM
[6]
  TGI: 28.2 µM
[7]
  TGI: 85.4 µM
[8]
  TGI: 72.5 µM
[9]
  TGI: 27.5 µM

## CCC(c1ccc(OC)cc1)C(CC)c1ccc(O)c(CN2CCCC2)c1 (configuration not stated)
[1]
  GI50: 2.18 µM
  TGI: 5.78 µM
[10]
  GI50: 5.9 µM
  TGI: 24.7 µM
[2]
  GI50: 1.66 µM
  TGI: 3.79 µM
[3]
  GI50: 2.51 µM
  TGI: 11.1 µM
[4]
  GI50: 3.28 µM
  TGI: 15.5 µM
[5]
  GI50: 2.29 µM
  TGI: 4.38 µM
[6]
  GI50: 2.06 µM
  TGI: 5.12 µM
[7]
  GI50: 3.68 µM
  TGI: 12.9 µM
[8]
  GI50: 1.57 µM
  TGI: 3.58 µM
[9]
  GI50: 2.99 µM
  TGI: 9.07 µM

## O=C1NC(=O)C(=O)C(c2nc3ccccc3s2)C1=O
[1]
  TGI: > 100 µM
[10]
  TGI: > 100 µM
[2]
  TGI: > 100 µM
[3]
  TGI: > 100 µM
[4]
  TGI: > 100 µM
[5]
  TGI: > 100 µM
[6]
  TGI: > 100 µM
[7]
  TGI: > 100 µM
[8]
  TGI: > 100 µM
[9]
  TGI: > 100 µM

Source: PubChem BioAssay (NCI)
